Measurements: US20240165123A1, “USE OF A COMPOUND CONTAINING A TRICYCLIC HETEROARYL GROUP” (CSPC Zhongqi Pharmaceutical Technology (Shijiazhuang) Co., …, priority 2021, published 2024)

System: IMQ-induced mouse psoriasis model
Assay: Pharmacodynamic test in the IMQ-induced mouse psoriasis model
Type: in vivo, female Balb/c mice
Design: key to Skin PASI score Erythema / Skin PASI score Scaling / Skin PASI score Thickness: PASI component score, 0-4 points; key to Skin PASI Total Score: sum of erythema, scaling, thickness scores (each 0-4); key to Skin pathological score: sum of histopathology criterion points
Details: for Epidermal thickness / IL-6 content in skin (ELISA) / Skin pathological score / Spleen weight / Spleen weight/body weight (spleen index) / TNF-alpha content in skin (ELISA): after 14 days of treatment
Source text: The purpose of this test was to evaluate the pharmacodynamics of Compound (I) in the IMQ (5% imiquimod cream cream)-induced mouse psoriasis model. One of the clinical adverse effects of imiquimod is to induce the onset of psoriasis.
• Test medicament: Compound (I) • Positive control medicament: dexamethasone (Dex) • Vehicle: 0.4% Tween 80/0.5% methylcellulose.
• female Balb/c mice aged 5-6 weeks, number: 70.
The animals were randomly divided into seven groups according to the body weights on the day before the start of the experiment.
The animals were shaved on their back one day before applying the medicament, forming a skin exposure area having a size of about 2 cm×3 cm. The mice were induced by IMQ, and applied with 62.5 mg of 5% imiquimod cream on the bare back and the right ear at regular intervals every day for 14 days. Mice in the normal control group were applied with vaseline on the bare back and the right ear at regular intervals every day.
The skin thickness was measured daily from the first day of the test until the end of the test.
The skin thickness measurement method was as follows: the back skin and the subcutaneous tissue of the mouse were pinched with the thumb and the index finger of the left hand in the same direction as the mouse body; the skinfold thickness was measured 1 cm away from the pinched part of the left hand (near the center of the molding part) with a digital thickness gauge (with millesimal reading) held in the right hand (model BK-3281, manufacturer: Shanghai Niuhui). The thickness was in mm, and the actual thickness was the half of the measured thickness (the skin thickness=the measured value/2).
The ear thickness was measured daily (at the center of the auricle).
Skin photographs were taken daily from the first day of the test until the end of the test.
The clinical symptoms were evaluated with the PASI evaluation standard from three indicators of the erythema (Erythema), the scale (Scaling) and the skin thickness (Thickness), and scored with 0-4 points. The total score was obtained by summing the three scores. The PASI evaluation standard was as follows: 0, asymptomatic; 1, mild; 2, moderate; 3, severe; 4, extremely severe.
Erythema: 0—no erythema visible; 1—light red; 2—red; 3—dark red; 4—extremely dark red.
Scaling: 0—no visible scale on the skin surface; 1—part of the skin lesion surface covered with scales; 2—most of the skin lesion surface covered with scales; 3—almost all of the skin lesion region covered with scales; 4—all of the skin lesion region covered with scales.
Dryness and pruritus are not included in the total score.
On the 14th day of the test, the spleen weight was collected.
After the test, all mice were euthanized by excessive inhalation of carbon dioxide. The skin was collected and divided into four parts, one of which was fixed in a tissue fixative solution for 24 hours for the pathological is detection. It was dehydrated, then embedded in paraffin and made into 4-micron sections. Skin sections were stained with hematoxylin eosin to observe the infiltration of the stratum corneum, the epidermal layer, the dermis layer and the inflammatory cell. When measuring the thickness of the epidermal layer, the stained skin sections were scanned with a Leca Aperio CS2 scanner at 200×magnification, and then the histopathological changes were observed and scored.
The specific criteria of the pathological score were as follows: munro microabscess found in the epidermal layer 2.0 points; hyperkeratosis 0.5 points; parakeratosis 1.0 points; the thinning or disappearing of the granular layer 1.0 points; the thickening of acanthosis 1.0 points; the extension and fluctuation of cuticular process 0.5, 1.0 and 1.5 points respectively according to the mild, moderate and severe degrees. […]

## NC(=O)c1cnc(Nc2ccc3c(c2)OC[C@H]2CN(S(=O)(=O)C4CC4)CCN32)nc1NC1CC1 [Compound (I), (R)-4-(cyclopropylamino)-2-((3-(cyclopropylsulfonyl)-1,2,3,4,4a,5-hexahydrobenzo[b]pyrazolo[1,2-d][1,4]oxazin-8-yl)amino)pyrimidine-5-arboxamide]
3 mpk PO bid, 1st Day
  Ear thickness Left: 0.15 ± 0.00 mm
  Ear thickness Right: 0.15 ± 0.00 mm
  Ear thickness Right-Left: 0.00 ± 0.00 mm
  Skin PASI Total Score: 0.00 ± 0.00
  Skin PASI score Erythema: 0.00 ± 0.00
  Skin PASI score Scaling: 0.00 ± 0.00
  Skin PASI score Thickness: 0.00 ± 0.00
  Skin thickness: 0.32 ± 0.00 mm
3 mpk PO bid, 14th Day
  Ear thickness Left: 0.16 ± 0.00 mm
  Ear thickness Right: 0.48 ± 0.01 mm
  Ear thickness Right-Left: 0.32 ± 0.01 mm
  Skin PASI Total Score: 8.10 ± 0.23
  Skin PASI score Erythema: 3.00 ± 0.00
  Skin PASI score Scaling: 2.30 ± 0.15
  Skin PASI score Thickness: 2.80 ± 0.13
  Skin thickness: 0.51 ± 0.01 mm
3 mpk PO bid
  Epidermal thickness: 136.10 ± 5.96 μm
  IL-6 content in skin (ELISA): 554.74 ± 88.14 pg/g
  Skin pathological score: 7.75 ± 0.39
  Spleen weight: 231.44 ± 12.72 mg
  Spleen weight/body weight (spleen index): 14.46 ± 0.71 mg/g
  TNF-alpha content in skin (ELISA): 1191.74 ± 124.81 pg/g
10 mpk PO bid, 1st Day
  Ear thickness Left: 0.14 ± 0.00 mm
  Ear thickness Right: 0.14 ± 0.00 mm
  Ear thickness Right-Left: 0.00 ± 0.00 mm
  Skin PASI Total Score: 0.00 ± 0.00
  Skin PASI score Erythema: 0.00 ± 0.00
  Skin PASI score Scaling: 0.00 ± 0.00
  Skin PASI score Thickness: 0.00 ± 0.00
  Skin thickness: 0.32 ± 0.00 mm
10 mpk PO bid, 14th Day
  Ear thickness Left: 0.15 ± 0.00 mm
  Ear thickness Right: 0.44 ± 0.00 mm
  Ear thickness Right-Left: 0.28 ± 0.00 mm
  Skin PASI Total Score: 7.70 ± 0.60
  Skin PASI score Erythema: 2.90 ± 0.10
  Skin PASI score Scaling: 2.40 ± 0.27
  Skin PASI score Thickness: 2.40 ± 0.27
  Skin thickness: 0.53 ± 0.02 mm
10 mpk PO bid
  Epidermal thickness: 131.63 ± 7.15 μm
  IL-6 content in skin (ELISA): 641.83 ± 96.28 pg/g
  Skin pathological score: 7.45 ± 0.80
  Spleen weight: 182.01 ± 9.11 mg
  Spleen weight/body weight (spleen index): 11.71 ± 0.56 mg/g
  TNF-alpha content in skin (ELISA): 1432.02 ± 152.77 pg/g
30 mpk PO bid, 1st Day
  Ear thickness Left: 0.14 ± 0.00 mm
  Ear thickness Right: 0.14 ± 0.00 mm
  Ear thickness Right-Left: 0.00 ± 0.00 mm
  Skin PASI Total Score: 0.00 ± 0.00
  Skin PASI score Erythema: 0.00 ± 0.00
  Skin PASI score Scaling: 0.00 ± 0.00
  Skin PASI score Thickness: 0.00 ± 0.00
  Skin thickness: 0.32 ± 0.00 mm
30 mpk PO bid, 14th Day
  Ear thickness Left: 0.16 ± 0.00 mm
  Ear thickness Right: 0.41 ± 0.01 mm
  Ear thickness Right-Left: 0.26 ± 0.01 mm
  Skin PASI Total Score: 5.50 ± 0.31
  Skin PASI score Erythema: 2.90 ± 0.10
  Skin PASI score Scaling: 1.20 ± 0.13
  Skin PASI score Thickness: 1.40 ± 0.16
  Skin thickness: 0.50 ± 0.01 mm
30 mpk PO bid
  Epidermal thickness: 121.75 ± 8.17 μm
  IL-6 content in skin (ELISA): 638.09 ± 59.63 pg/g
  Skin pathological score: 5.55 ± 0.90
  Spleen weight: 146.81 ± 7.71 mg
  Spleen weight/body weight (spleen index): 9.27 ± 0.47 mg/g
  TNF-alpha content in skin (ELISA): 1236.41 ± 100.8 pg/g
60 mpk PO bid, 1st Day
  Ear thickness Left: 0.14 ± 0.00 mm
  Ear thickness Right: 0.14 ± 0.00 mm
  Ear thickness Right-Left: 0.00 ± 0.00 mm
  Skin PASI Total Score: 0.00 ± 0.00
  Skin PASI score Erythema: 0.00 ± 0.00
  Skin PASI score Scaling: 0.00 ± 0.00
  Skin PASI score Thickness: 0.00 ± 0.00
  Skin thickness: 0.33 ± 0.01 mm
60 mpk PO bid, 14th Day
  Ear thickness Left: 0.15 ± 0.00 mm
  Ear thickness Right: 0.38 ± 0.01 mm
  Ear thickness Right-Left: 0.22 ± 0.01 mm
  Skin PASI Total Score: 4.60 ± 0.34
  Skin PASI score Erythema: 2.00 ± 0.15
  Skin PASI score Scaling: 1.20 ± 0.13
  Skin PASI score Thickness: 1.40 ± 0.16
  Skin thickness: 0.43 ± 0.02 mm
60 mpk PO bid
  Epidermal thickness: 113.28 ± 6.95 μm
  IL-6 content in skin (ELISA): 499.72 ± 95.81 pg/g
  Skin pathological score: 5.05 ± 0.88
  Spleen weight: 125.73 ± 4.63 mg
  Spleen weight/body weight (spleen index): 8.01 ± 0.28 mg/g
  TNF-alpha content in skin (ELISA): 1188.81 ± 159.63 pg/g
